ChEMBL document CHEMBL3046125, “Design and synthesis of niflumic acid-based N-acylhydrazone derivatives as novel anti-inflammatory and analgesic agents” (2013)

Experiments:
Assay type in all cases: functional
Rattus norvegicus [1] = assay: Anti-inflammatory activity in Wistar Rattus norvegicus (rat) assessed as inhibition of carrageenan-induced paw edema at 10 mg/kg, ip measured after 30 min; settings: 0.5 h, route intraperitoneal
Rattus norvegicus [2] = assay: Anti-inflammatory activity in Wistar Rattus norvegicus (rat) assessed as inhibition of carrageenan-induced paw edema at 10 mg/kg, ip measured after 3 hr; settings: route intraperitoneal
Rattus norvegicus [3] = assay: Anti-inflammatory activity in Wistar Rattus norvegicus (rat) assessed as inhibition of carrageenan-induced paw edema at 10 mg/kg, ip measured after 1 hr; settings: route intraperitoneal
Rattus norvegicus [4] = assay: Anti-inflammatory activity in Wistar Rattus norvegicus (rat) assessed as inhibition of carrageenan-induced paw edema at 10 mg/kg, ip measured after 4 hr; settings: route intraperitoneal
Mus musculus = assay: Analgesic activity in NMRI Mus musculus (mouse) assessed as inhibition of acetic acid-induced abdominal writhing at 10 mg/kg administered 30 min prior to acetic acid injection; settings: Abdomen
Rattus norvegicus [5] = assay: Anti-inflammatory activity in Wistar Rattus norvegicus (rat) assessed as inhibition of carrageenan-induced paw edema at 10 mg/kg, ip measured after 2 hr; settings: route intraperitoneal

Molecule `O=C(N/N=C/c1ccccc1)c1cccnc1Nc1cccc(C(F)(F)F)c1` has an inhibition in vivo at 10 mg/kg (Rattus norvegicus [1]) of 60.4%, an inhibition in vivo at 10 mg/kg (Rattus norvegicus [2]) of 21.2% and an inhibition in vivo at 10 mg/kg (Rattus norvegicus [3]) of 53.9%. The inhibition in vivo at 10 mg/kg (Rattus norvegicus [4]) was 31%, the inhibition in vivo at 10 mg/kg (Mus musculus) was 66.2% and the inhibition in vivo at 10 mg/kg (Rattus norvegicus [5]) was 36.8%.
For `O=C(N/N=C/c1cccc(F)c1)c1cccnc1Nc1cccc(C(F)(F)F)c1`, the inhibition in vivo at 10 mg/kg (Rattus norvegicus [1]) was 58.2%, the inhibition in vivo at 10 mg/kg (Rattus norvegicus [2]) was 37% and the inhibition in vivo at 10 mg/kg (Rattus norvegicus [3]) was 51.5%. The inhibition in vivo at 10 mg/kg (Rattus norvegicus [4]) was 29.8% and the inhibition in vivo at 10 mg/kg (Rattus norvegicus [5]) was 52.8%.
In the case of `O=C(N/N=C/c1ccc(F)cc1)c1cccnc1Nc1cccc(C(F)(F)F)c1`, the inhibition in vivo at 10 mg/kg (Rattus norvegicus [1]) was 33.9%, the inhibition in vivo at 10 mg/kg (Rattus norvegicus [2]) was 41.3% and the inhibition in vivo at 10 mg/kg (Rattus norvegicus [3]) was 43.2%. For the same molecule, the inhibition in vivo at 10 mg/kg (Rattus norvegicus [4]) was 36.5% and the inhibition in vivo at 10 mg/kg (Rattus norvegicus [5]) was 41.2%.
Molecule `O=C(N/N=C/c1cccc(Cl)c1)c1cccnc1Nc1cccc(C(F)(F)F)c1` has an inhibition in vivo at 10 mg/kg (Rattus norvegicus [1]) of 77.8%, an inhibition in vivo at 10 mg/kg (Rattus norvegicus [2]) of 55.2% and an inhibition in vivo at 10 mg/kg (Rattus norvegicus [3]) of 76.7%. The inhibition in vivo at 10 mg/kg (Rattus norvegicus [4]) was 40.4%, the inhibition in vivo at 10 mg/kg (Mus musculus) was 61.9% and the inhibition in vivo at 10 mg/kg (Rattus norvegicus [5]) was 63.5%.
`O=C(N/N=C/c1ccc(Cl)cc1)c1cccnc1Nc1cccc(C(F)(F)F)c1` was tested, and the inhibition in vivo at 10 mg/kg (Rattus norvegicus [1]) was 52.4%, the inhibition in vivo at 10 mg/kg (Rattus norvegicus [2]) was 48.5% and the inhibition in vivo at 10 mg/kg (Rattus norvegicus [3]) was 67.2%. For the same molecule, the inhibition in vivo at 10 mg/kg (Rattus norvegicus [4]) was 43.7% and the inhibition in vivo at 10 mg/kg (Rattus norvegicus [5]) was 52.8%.
For `O=C(N/N=C/c1cccc(O)c1)c1cccnc1Nc1cccc(C(F)(F)F)c1`, the inhibition in vivo at 10 mg/kg (Rattus norvegicus [1]) was 67.5%, the inhibition in vivo at 10 mg/kg (Rattus norvegicus [2]) was 49% and the inhibition in vivo at 10 mg/kg (Rattus norvegicus [3]) was 63.8%. For the same molecule, the inhibition in vivo at 10 mg/kg (Rattus norvegicus [4]) was 35.8% and the inhibition in vivo at 10 mg/kg (Rattus norvegicus [5]) was 65.4%.
Work on `O=C(N/N=C/c1ccc(O)cc1)c1cccnc1Nc1cccc(C(F)(F)F)c1` yielded an inhibition in vivo at 10 mg/kg (Rattus norvegicus [1]) of 59.2%, an inhibition in vivo at 10 mg/kg (Rattus norvegicus [2]) of 59.5% and an inhibition in vivo at 10 mg/kg (Rattus norvegicus [3]) of 70.5%. For the same molecule, the inhibition in vivo at 10 mg/kg (Rattus norvegicus [4]) was 61.6% and the inhibition in vivo at 10 mg/kg (Rattus norvegicus [5]) was 68%.
`O=C(N/N=C/c1ccc(O)c(O)c1)c1cccnc1Nc1cccc(C(F)(F)F)c1` was tested, and the inhibition in vivo at 10 mg/kg (Rattus norvegicus [1]) was 51.4%, the inhibition in vivo at 10 mg/kg (Rattus norvegicus [2]) was 38.2% and the inhibition in vivo at 10 mg/kg (Rattus norvegicus [3]) was 50.8%. For the same molecule, the inhibition in vivo at 10 mg/kg (Rattus norvegicus [4]) was 21.1% and the inhibition in vivo at 10 mg/kg (Rattus norvegicus [5]) was 46.9%.
For `COc1cccc(/C=N/NC(=O)c2cccnc2Nc2cccc(C(F)(F)F)c2)c1`, the inhibition in vivo at 10 mg/kg (Rattus norvegicus [1]) was 52.8%, the inhibition in vivo at 10 mg/kg (Rattus norvegicus [2]) was 30.3% and the inhibition in vivo at 10 mg/kg (Rattus norvegicus [3]) was 58.8%. For the same molecule, the inhibition in vivo at 10 mg/kg (Rattus norvegicus [4]) was 14.9% and the inhibition in vivo at 10 mg/kg (Rattus norvegicus [5]) was 49.7%.
Work on `COc1ccc(/C=N/NC(=O)c2cccnc2Nc2cccc(C(F)(F)F)c2)cc1` yielded an inhibition in vivo at 10 mg/kg (Rattus norvegicus [1]) of 50.4%, an inhibition in vivo at 10 mg/kg (Rattus norvegicus [2]) of 26.5% and an inhibition in vivo at 10 mg/kg (Rattus norvegicus [3]) of 59.4%. The inhibition in vivo at 10 mg/kg (Rattus norvegicus [4]) was 14%, the inhibition in vivo at 10 mg/kg (Mus musculus) was 97.4% and the inhibition in vivo at 10 mg/kg (Rattus norvegicus [5]) was 42.4%.
In the case of `COc1ccc(/C=N/NC(=O)c2cccnc2Nc2cccc(C(F)(F)F)c2)c(OC)c1`, the inhibition in vivo at 10 mg/kg (Rattus norvegicus [1]) was 37.8%, the inhibition in vivo at 10 mg/kg (Rattus norvegicus [2]) was 24.1% and the inhibition in vivo at 10 mg/kg (Rattus norvegicus [3]) was 55.7%. For the same molecule, the inhibition in vivo at 10 mg/kg (Rattus norvegicus [4]) was 19.8% and the inhibition in vivo at 10 mg/kg (Rattus norvegicus [5]) was 44.7%.
Work on `COc1ccc(/C=N/NC(=O)c2cccnc2Nc2cccc(C(F)(F)F)c2)cc1OC` yielded an inhibition in vivo at 10 mg/kg (Rattus norvegicus [1]) of 60.1%, an inhibition in vivo at 10 mg/kg (Rattus norvegicus [2]) of 44% and an inhibition in vivo at 10 mg/kg (Rattus norvegicus [3]) of 70%. It also gave an inhibition in vivo at 10 mg/kg (Rattus norvegicus [4]) of 52.9%, an inhibition in vivo at 10 mg/kg (Mus musculus) of 80.7% and an inhibition in vivo at 10 mg/kg (Rattus norvegicus [5]) of 49%.
`COc1cc(/C=N/NC(=O)c2cccnc2Nc2cccc(C(F)(F)F)c2)cc(OC)c1OC` was tested, and the inhibition in vivo at 10 mg/kg (Rattus norvegicus [1]) was 55.9%, the inhibition in vivo at 10 mg/kg (Rattus norvegicus [2]) was 28.5% and the inhibition in vivo at 10 mg/kg (Rattus norvegicus [3]) was 54.4%. It also gave an inhibition in vivo at 10 mg/kg (Rattus norvegicus [4]) of 28.6% and an inhibition in vivo at 10 mg/kg (Rattus norvegicus [5]) of 40.6%.
`CN(C)c1ccc(/C=N/NC(=O)c2cccnc2Nc2cccc(C(F)(F)F)c2)cc1` gave an inhibition in vivo at 10 mg/kg (Rattus norvegicus [1]) of 61.3%, an inhibition in vivo at 10 mg/kg (Rattus norvegicus [2]) of 39.5% and an inhibition in vivo at 10 mg/kg (Rattus norvegicus [3]) of 63.5%. The inhibition in vivo at 10 mg/kg (Rattus norvegicus [4]) was 28.2% and the inhibition in vivo at 10 mg/kg (Rattus norvegicus [5]) was 51.4%.
In the case of `O=C(N/N=C/c1cccnc1)c1cccnc1Nc1cccc(C(F)(F)F)c1`, the inhibition in vivo at 10 mg/kg (Rattus norvegicus [1]) was 59.1%, the inhibition in vivo at 10 mg/kg (Rattus norvegicus [2]) was 52.4% and the inhibition in vivo at 10 mg/kg (Rattus norvegicus [3]) was 76.1%. It also gave an inhibition in vivo at 10 mg/kg (Rattus norvegicus [4]) of 36%, an inhibition in vivo at 10 mg/kg (Mus musculus) of 51.4% and an inhibition in vivo at 10 mg/kg (Rattus norvegicus [5]) of 62.4%.
In the case of `O=C(N/N=C/c1ccncc1)c1cccnc1Nc1cccc(C(F)(F)F)c1`, the inhibition in vivo at 10 mg/kg (Rattus norvegicus [1]) was 68.1%, the inhibition in vivo at 10 mg/kg (Rattus norvegicus [2]) was 54.9% and the inhibition in vivo at 10 mg/kg (Rattus norvegicus [3]) was 70.2%. It also gave an inhibition in vivo at 10 mg/kg (Rattus norvegicus [4]) of 45.9%, an inhibition in vivo at 10 mg/kg (Mus musculus) of 85.6% and an inhibition in vivo at 10 mg/kg (Rattus norvegicus [5]) of 65.2%.
`CNc1ncccc1C(=O)N/N=C/c1ccccc1` showed an inhibition in vivo at 10 mg/kg (Rattus norvegicus [1]) of 56.5%, an inhibition in vivo at 10 mg/kg (Rattus norvegicus [2]) of 22.7% and an inhibition in vivo at 10 mg/kg (Rattus norvegicus [3]) of 67.6%. It also gave an inhibition in vivo at 10 mg/kg (Rattus norvegicus [4]) of 14.8% and an inhibition in vivo at 10 mg/kg (Rattus norvegicus [5]) of 47.2%.
In the case of `CNc1ncccc1C(=O)N/N=C/c1cccc(Cl)c1`, the inhibition in vivo at 10 mg/kg (Rattus norvegicus [1]) was 67.1%, the inhibition in vivo at 10 mg/kg (Rattus norvegicus [2]) was 39.5% and the inhibition in vivo at 10 mg/kg (Rattus norvegicus [3]) was 68.6%. For the same molecule, the inhibition in vivo at 10 mg/kg (Rattus norvegicus [4]) was 40.4% and the inhibition in vivo at 10 mg/kg (Rattus norvegicus [5]) was 61.7%.
`CNc1ncccc1C(=O)N/N=C/c1ccc(Cl)cc1` was tested, and the inhibition in vivo at 10 mg/kg (Rattus norvegicus [1]) was 46.5%, the inhibition in vivo at 10 mg/kg (Rattus norvegicus [2]) was 22.4% and the inhibition in vivo at 10 mg/kg (Rattus norvegicus [3]) was 54.7%. The inhibition in vivo at 10 mg/kg (Rattus norvegicus [4]) was 18.2% and the inhibition in vivo at 10 mg/kg (Rattus norvegicus [5]) was 54.1%.
Molecule `CNc1ncccc1C(=O)N/N=C/c1cccc(OC)c1` has an inhibition in vivo at 10 mg/kg (Rattus norvegicus [1]) of 56.1%, an inhibition in vivo at 10 mg/kg (Rattus norvegicus [2]) of 49.5% and an inhibition in vivo at 10 mg/kg (Rattus norvegicus [3]) of 64.6%. For the same molecule, the inhibition in vivo at 10 mg/kg (Rattus norvegicus [4]) was 42.2% and the inhibition in vivo at 10 mg/kg (Rattus norvegicus [5]) was 51.5%.
`CNc1ncccc1C(=O)N/N=C/c1cccnc1` showed an inhibition in vivo at 10 mg/kg (Rattus norvegicus [1]) of 66.3%, an inhibition in vivo at 10 mg/kg (Rattus norvegicus [2]) of 27.7% and an inhibition in vivo at 10 mg/kg (Rattus norvegicus [3]) of 61.1%. The inhibition in vivo at 10 mg/kg (Rattus norvegicus [4]) was 13.8% and the inhibition in vivo at 10 mg/kg (Rattus norvegicus [5]) was 43.7%.
For `CNc1ncccc1C(=O)N/N=C/c1ccncc1`, the inhibition in vivo at 10 mg/kg (Rattus norvegicus [1]) was 63.2%, the inhibition in vivo at 10 mg/kg (Rattus norvegicus [2]) was 55% and the inhibition in vivo at 10 mg/kg (Rattus norvegicus [3]) was 80.4%. The inhibition in vivo at 10 mg/kg (Rattus norvegicus [4]) was 15.5%, the inhibition in vivo at 10 mg/kg (Mus musculus) was 90.6% and the inhibition in vivo at 10 mg/kg (Rattus norvegicus [5]) was 60.4%.
Work on `O=C(O)c1cccnc1Nc1cccc(C(F)(F)F)c1` [NIFLUMIC ACID] yielded an inhibition in vivo at 10 mg/kg (Rattus norvegicus [1]) of 64.1%, an inhibition in vivo at 10 mg/kg (Rattus norvegicus [2]) of 70.6% and an inhibition in vivo at 10 mg/kg (Rattus norvegicus [3]) of 70.4%. The inhibition in vivo at 10 mg/kg (Rattus norvegicus [4]) was 52%, the inhibition in vivo at 10 mg/kg (Mus musculus) was 68.3% and the inhibition in vivo at 10 mg/kg (Rattus norvegicus [5]) was 70.1%.
